Reference: patent publication US20120004235A1, “METHODS TO TREAT CANCER” (Rutgers, The State University of New Jersey, priority 2009, published 2012)
Where two headings read alike, the source gives them in different places.

What was measured:
[1] = system: HCT116 Human Colon Carcinoma; experiment: Human tumor cell CFU assay (Test B); type: cell-based; settings: colony formation, continuous exposure 7-9 days; for IC50: read-out: IC50 Values (95% Lower and Upper Confidence Intervals); for IC90: read-out: IC90 Values (95% Lower and Upper Confidence Intervals)
Procedure: (§1) For human tumor cell CFU assays, the cell lines which grow as monolayers, MDA-MB-231, HCT116, HT29, NCI-H460, KB3-1 and KBV-1 were grown in RPMI medium (Invitrogen/Gibco, Grand Island, N.Y.) supplemented with 5% fetal bovine serum (Invitrogen/Gibco, Grand Island, NY). The RPMI-8226 cell line grows in suspension.
(§2) For experiments, human tumor cells (1 103) were plated in 6-well plates in medium supplemented with 5% or 10% fetal bovine serum. The compounds were tested in concentrations over the range from 0.01 to 100 nanomolar in half-log intervals covering […] along with untreated control wells. In later experiments some cases the concentration ranges were refined to focus on the region of interest in the response curves. Each compound concentration was tested in duplicate wells. Cultures were exposed to the compounds continuously for 7-9 days at 37° C. in a humidified atmosphere of 5% carbon dioxide balance air. Each experiment was performed three independent times. Colonies were defined as clusters containing 30 or more cells.
(§3) For the monolayer cultures, colonies were visualized by staining with a preformulated crystal violet solution (Fisher Cat #291-472) which contained 0.41% crystal violet, 12% ethanol balance deionized water. To visualize the colonies, the medium was removed by aspiration; the monolayer was rinsed once with phosphate buffered saline which was removed by aspiration. Three drops of crystal violet solution was added to each well and the 6-well plate was rotated so that the crystal violet solution covered the surface area of each well. After 5 minutes exposure time, the wells were rinsed twice with phosphate buffered saline and the colonies were visible.
(§4) The values were expressed as the mean values with lower and upper 95% confidence intervals in nanomolar concentrations.

[2] = system: HT29 Human Colon Carcinoma; experiment: Human tumor cell CFU assay (Test B); type: cell-based; settings: colony formation, continuous exposure 7-9 days; for IC50: read-out: IC50 Values (95% Lower and Upper Confidence Intervals); for IC90: read-out: IC90 Values (95% Lower and Upper Confidence Intervals)
Procedure: as §1, §2, §3, §4

[3] = system: KB-V1 MDR1+ KB3-1 Subline; experiment: Human tumor cell CFU assay (Test B); type: cell-based; settings: colony formation, continuous exposure 7-9 days
Procedure: as §1, §2, §3, §4

[4] = system: KB3-1 HeLa Human Cervical Carcinoma; experiment: Human tumor cell CFU assay (Test B); type: cell-based; settings: colony formation, continuous exposure 7-9 days; for IC90: read-out: IC90 Values (95% Lower and Upper Confidence Intervals)
Procedure: as §1, §2, §3, §4

[5] = system: KBH5.0 BCRP+ KB3-1 Subline; experiment: Human tumor cell CFU assay (Test B); type: cell-based; settings: colony formation, continuous exposure 7-9 days; for IC50: read-out: IC50 Values (95% Lower and Upper Confidence Intervals)
Procedure: as §1, §2, §3, §4

[6] = system: MDA-MB-231 Human Breast Carcinoma; experiment: Human tumor cell CFU assay (Test B); type: cell-based; settings: colony formation, continuous exposure 7-9 days; for IC50: read-out: IC50 Values (95% Lower and Upper Confidence Intervals); for IC90: read-out: IC90 Values (95% Lower and Upper Confidence Intervals)
Procedure: as §1, §2, §3, §4

[7] = system: NCI-H460 Human Non-small Cell Lung Carcinoma; experiment: Human tumor cell CFU assay (Test B); type: cell-based; settings: colony formation, continuous exposure 7-9 days; for IC50: read-out: IC50 Values (95% Lower and Upper Confidence Intervals); for IC90: read-out: IC90 Values (95% Lower and Upper Confidence Intervals)
Procedure: as §1, §2, §3, §4

[8] = system: RPMI-8226 Human Multiple Myeloma; experiment: Human tumor cell CFU assay (Test B); type: cell-based; settings: colony formation in agar, continuous exposure 7-9 days
Procedure: as §1
For human tumor cell CFU assays, RPMI-8226 cells were grown in 0.35% agar in DMEM-F12 medium supplemented with 10% fetal bovine serum over a base layer of 0.5% agar in DMEM-F12 medium supplemented with 10% fetal bovine serum
as §2, §4

[9] = system: MDA-MB-231 human breast tumor xenograft; settings: qd×5
[10] = system: NCI-H460 human non-small cell lung carcinoma xenograft; experiment: Compound 2 citrate salt vs. NCI-H460 xenograft model (pemetrexed, topotecan, cisplatin controls); settings: qd×5

Compound: COc1cc2c(=O)n(CCN(C)C)c3c4cc5c(cc4ncc3c2cc1OC)OCO5 [Compound 1]
- IC50 ([1]; Homo sapiens, HCT-116): 1.7 nM
- IC90 ([1]; Homo sapiens, HCT-116): 5.6 nM
- IC50 ([2]; Homo sapiens, HT-29): 1.3 nM
- IC90 ([2]; Homo sapiens, HT-29): 4.3 nM
- IC50 ([3]; Homo sapiens): 1.8 nM
- IC90 ([3]; Homo sapiens): 5.7 nM
- IC50 ([4]; Homo sapiens): 1.5 nM
- IC90 ([4]; Homo sapiens): 5.2 nM
- IC90 ([5]; Homo sapiens, KB 3-1): 5.8 nM
- IC50 ([5]; Homo sapiens, KB 3-1): 1.8 nM
- IC50 ([6]; Homo sapiens, MDA-MB-231): 0.3 nM
- IC90 ([6]; Homo sapiens, MDA-MB-231): 1.2 nM
- IC50 ([7]; Homo sapiens, NCI-H460): 2.3 nM
- IC90 ([7]; Homo sapiens, NCI-H460): 6.2 nM
- IC50 ([8]; Homo sapiens, RPMI-8226): 1.8 nM
- IC90 ([8]; Homo sapiens, RPMI-8226): 5.8 nM

Compound: COc1cc2c(C(=O)NCC(C)(C)N(C)C)cc3c4cc5c(cc4ncc3c2cc1OC)OCO5 [Compound 3]
- IC50 ([1]; Homo sapiens, HCT-116): 0.4 nM
- IC90 ([1]; Homo sapiens, HCT-116): 1.7 nM
- IC50 ([2]; Homo sapiens, HT-29): 0.5 nM
- IC90 ([2]; Homo sapiens, HT-29): 1.5 nM
- IC50 ([3]; Homo sapiens): 0.6 nM
- IC90 ([3]; Homo sapiens): 2.8 nM
- IC50 ([4]; Homo sapiens): 0.8 nM
- IC90 ([4]; Homo sapiens): 2.8 nM
- IC90 ([5]; Homo sapiens, KB 3-1): 2.3 nM
- IC50 ([5]; Homo sapiens, KB 3-1): 0.6 nM
- IC50 ([6]; Homo sapiens, MDA-MB-231): 0.5 nM
- IC90 ([6]; Homo sapiens, MDA-MB-231): 0.9 nM
- IC50 ([7]; Homo sapiens, NCI-H460): 0.9 nM
- IC90 ([7]; Homo sapiens, NCI-H460): 3 nM
- IC50 ([8]; Homo sapiens, RPMI-8226): 0.7 nM
- IC90 ([8]; Homo sapiens, RPMI-8226): 2.5 nM

Compound: COc1cc2c(=O)n(CCN(C)C(C)C)c3c4cc5c(cc4ncc3c2cc1OC)OCO5 [Compound 4]
- IC50 ([1]; Homo sapiens, HCT-116): 1.2 nM
- IC90 ([1]; Homo sapiens, HCT-116): 4.4 nM
- IC50 ([2]; Homo sapiens, HT-29): 0.5 nM
- IC90 ([2]; Homo sapiens, HT-29): 1.9 nM
- IC50 ([3]; Homo sapiens): 1.4 nM
- IC90 ([3]; Homo sapiens): 6.9 nM
- IC50 ([4]; Homo sapiens): 1 nM
- IC90 ([4]; Homo sapiens): 4 nM
- IC90 ([5]; Homo sapiens, KB 3-1): 6 nM
- IC50 ([5]; Homo sapiens, KB 3-1): 1.3 nM
- IC50 ([6]; Homo sapiens, MDA-MB-231): 0.3 nM
- IC90 ([6]; Homo sapiens, MDA-MB-231): 1 nM
- IC50 ([7]; Homo sapiens, NCI-H460): 3.4 nM
- IC90 ([7]; Homo sapiens, NCI-H460): 11 nM
- IC50 ([8]; Homo sapiens, RPMI-8226): 0.4 nM
- IC90 ([8]; Homo sapiens, RPMI-8226): 1.5 nM

Compound: COc1cccc2c1C(=O)c1c(O)c3c(c(O)c1C2=O)C[C@@](O)(C(=O)CO)C[C@@H]3O[C@H]1C[C@H](N)[C@H](O)[C@H](C)O1 [Doxorubicin, reference compound]
- toxic deaths ([9]; both dosages, 2.5 and 3 mg/kg/day IP): there were toxic deaths

Compound: COc1cc2c(=O)n(CCN3CCCC3)c3c4cc5c(cc4nnc3c2cc1OC)OCO5 [Example 5, 2,3-Dimethoxy-8,9-methylenedioxy-11-[2-(pyrrolidin-1-yl)ethyl]-11H-5,6,11-triaza-chrysen-12-one]
- melting point: 229 °C

Compound: COc1cc2c(=O)n(CCN3CCCCC3)c3c4cc5c(cc4nnc3c2cc1OC)OCO5 [Example 6, 2,3-Dimethoxy-8,9-methylenedioxy-11-[2-(piperidin-1-yl)ethyl]-11H-5,6,11-triaza-chrysen-12-one]
- melting point: 294 to 295 °C

Compound: COc1cc2c(=O)n(C(C)CN(C)C)c3c4cc5c(cc4ncc3c2cc1OC)OCO5 (stereo not shown) [Example 8, 8,9-Dimethoxy-2,3-methylenedioxy-5-[2-(N,N-dimethylamino)-1-methylethyl]-5H-dibenzo[c,h]1,6-naphthyridin-6-one]
- melting point: 186 to 187 °C

Compound: COc1cc2c(=O)n(CCN3CCCC3)c3c4cc5c(cc4ncc3c2cc1OC)OCO5 [Example 9, 8,9-Dimethoxy-2,3-methylenedioxy-5-[2-(pyrrolidin-1-yl)ethyl]-5H-dibenzo[c,h]1,6-naphthyridin-6-one]
- melting point: 255 to 257 °C (dec.)

Compound: COc1cc2c(=O)n(CCCN(C)C)c3c4cc5c(cc4ncc3c2cc1OC)OCO5 [Example 11, 8,9-Dimethoxy-2,3-methylenedioxy-5-[3-(N,N-dimethylamino)propyl]-5H-dibenzo[c,h]1,6-naphthyridin-6-one]
- melting point: 262 to 264 °C (dec.)

Compound: COc1cc2c(=O)n(CCO)c3c4cc5c(cc4ncc3c2cc1OC)OCO5 [Example 13, 8,9-Dimethoxy-2,3-methylenedioxy-5-[2-(hydroxy)ethyl]-5H-dibenzo[c,h]1,6-naphthyridin-6-one]
- melting point: 285 to 286 °C

Compound: COc1cc2c(=O)n(CCOCCO)c3c4cc5c(cc4ncc3c2cc1OC)OCO5 [Example 14, 8,9-Dimethoxy-2,3-methylenedioxy-5-[2-(2-hydroxyethoxy)ethyl]-5H-dibenzo[c,h]1,6-naphthyridin-6-one]
- melting point: 235 °C

Compound: COc1cc2c(cc1OC)-c1cnc3cc4c(cc3c1N(CCN(C)C)C2)OCO4 [Example 17, 8,9-Dimethoxy-2,3-methylenedioxy-5-[2-(N,N-dimethylamino)ethyl]-5,6-dihydro-dibenzo[c,h]1,6-naphthyridine]
- melting point: 271 to 273 °C (dec.)

Compound: COc1cc2c(cc1OC)-c1cnc3cc4c(cc3c1N(C(C)CN(C)C)C2)OCO4 (stereo not shown) [Example 18, 8,9-Dimethoxy-2,3-methylenedioxy-5-[2-(N,N-dimethylamino)-1-methylethyl]-5,6-dihydro-dibenzo[c,h]1,6-naphthyridine]
- melting point: 153 to 154 °C

Compound: CCN(CC)CCn1c(=O)c2cc(OC)c(OC)cc2c2cnc3cc4c(cc3c21)OCO4 [Example 19, 8,9-Dimethoxy-2,3-methylenedioxy-5-[2-(N,N-diethylamino)ethyl]-5H-dibenzo[c,h]1,6-naphthyridin-6-one]
- melting point: 221 to 223 °C (dec.)

Compound: O=C(O)C(=O)O.[NH-][C@@H]1CCCC[C@H]1[NH-].[Pt+2] [Oxaliplatin, reference compound]
- delay in tumor growth ([9]; 5 and 6.5 mg/kg/day IP): 13 days
- tolerability ([9]; 5 and 6.5 mg/kg/day IP): well tolerated
- TGI (T/C) ([9]; both dosages, 5 and 6.5 mg/kg/day IP): 45.1-47.6%

Compound: Nc1nc2[nH]cc(CCc3ccc(C(=O)N[C@@H](CCC(=O)O)C(=O)O)cc3)c2c(=O)[nH]1 [Pemetrexed, reference compound]
- antitumor activity ([10]; 100 and 150 mg/kg/day IP): not considered active
- body weight loss ([10]; 100 and 150 mg/kg/day IP): ≤ 20%

Compound: CCc1c2c(nc3ccc(O)cc13)-c1cc3c(c(=O)n1C2)COC(=O)[C@]3(O)CC [SN-38, 7-ethyl-10-hydroxyl-camptothecin, reference compound]
- IC50 [1]: 2.7 nM
- IC90 [1]: 8.4 nM
- IC50 [2]: 0.5 nM
- IC90 [2]: 1.8 nM
- IC50 [3]: 15 nM
- IC90 [3]: 55 nM
- IC50 [4]: 5.3 nM
- IC90 [4]: 19.1 nM
- IC90 [5]: 18.8 nM
- IC50 [5]: 6.1 nM
- IC50 [6]: 0.7 nM
- IC90 [6]: 2 nM
- IC50 [7]: 4.7 nM
- IC90 [7]: 13.3 nM
- IC50 [8]: 0.9 nM
- IC90 [8]: 3 nM

Compound: CC[C@@]1(O)C(=O)OCc2c1cc1n(c2=O)Cc2cc3c(CN(C)C)c(O)ccc3nc2-1 [Topotecan, reference compound]
- IC50 ([1]; Homo sapiens, HCT-116): 8.5 nM
- IC90 ([1]; Homo sapiens, HCT-116): 26.3 nM
- IC50 ([2]; Homo sapiens, HT-29): 2.9 nM
- IC90 ([2]; Homo sapiens, HT-29): 11.2 nM
- IC50 ([3]; Homo sapiens): 75 nM
- IC90 ([3]; Homo sapiens): 257 nM
- IC50 ([4]; Homo sapiens): 32.7 nM
- IC90 ([4]; Homo sapiens): 107 nM
- IC90 ([5]; Homo sapiens, KB 3-1): 115 nM
- IC50 ([5]; Homo sapiens, KB 3-1): 32 nM
- IC50 ([6]; Homo sapiens, MDA-MB-231): 5.6 nM
- IC90 ([6]; Homo sapiens, MDA-MB-231): 19.5 nM
- IC50 ([7]; Homo sapiens, NCI-H460): 18.2 nM
- IC90 ([7]; Homo sapiens, NCI-H460): 52.5 nM
- IC50 ([8]; Homo sapiens, RPMI-8226): 12.7 nM
- IC90 ([8]; Homo sapiens, RPMI-8226): 43.2 nM
- body weight loss ([10]; 2 and 2.5 mg/kg/day IP): > 30%
